For the assay, the system named is THP-1 cells. In words: Colony formation assay of THP-1 cells with shControl or shUBE2N. The assay is classed as cell-based, human. From the text:
For knockdown studies, UBE2N shRNA template oligonucleotides from the TRC shRNA library cloned into the pLKO.1 TRC cloning vector (Addgene: #10878) and pLKO.1 TRC cloning vector (Table 3). The puromycin gene in pLKO.1 was replaced with GFP. pLKO.1 TRC control was used as non-silencing control (Addgene: #10879). For production of lentiviral particles, lentiviral shRNA expression constructs were transfected together with packaging vectors into 293T producer cells using TransIT transfection reagent (Mirus, MIR 2306), supernatants were harvested after 48 and 72 hours, and concentrated by ultracentrifugation. […] UBE2N knockdown efficiency was determined by quantitative real time PCR (qRT-PCR) and western blot and quantified as described elsewhere. […] Levels of overexpression of UBE2N were determined by western blot.
In order to determine viability after UBE2N knockdown or inhibition, 1×10^6 AML cells were washed with PBS and mixed with pre-diluted APC-conjugated Annexin V (BD Pharmigen, Franklin Lakes, N.J.) and Propidium iodide (PI) (Invitrogen ThermoFisher 00-6990-42, Waltham, Mass.). […] Colonies were scored after 7 days in culture. […] Colonies were scored at 7 days. […] Colonies were manually scored at 14-16 days after plating or counted with STEMVision (StemCell Technologies, Vancouver, CA).

As to `CCc1ccc(C(=O)C=CSc2nc3ccc(C)cc3[nH]2)cc1` [UC-764864, 1-(4-ethylphenyl)-3-[(6-methyl-1H-benzimidazol-2-yl)sulfanyl]prop-2-en-1-one], the “leukemic colony formation of THP-1 cells following knockdown of UBE2N” value was “did not significantly further suppress” and the “leukemic progenitor function (colony formation) of THP-1-shControl cells” value is “significantly repressed”.
